Earlier results in the CATMoS acute toxicity set (Mansouri et al. 2021).
Several values for one entry are separate records, joined by “and”; a condition that tells them apart may be missing. Equal values may be shown once.

Test: rat acute oral toxicity
Settings: in vivo

Question: With COCCl as the compound, how does the LD50 read?
Answer: 500 mg/kg

Question: For CC(C)(C)S, which LD50 is on record?
Answer: 4730 mg/kg

Question: For CS(=O)(=O)c1ccc(CN(CCO)C(=O)C(Cl)Cl)cc1, which LD50 is on record?
Answer: 12500 mg/kg

Question: Which LD50 does the source give for OC(CCN1CCCCC1)(c1ccccc1)C1CCCC1 (stereo not drawn) here?
Answer: 628 mg/kg

Question: For CC(C)C(=O)OCC(C)(C)C(O)C(C)C (stereo not drawn), which LD50 is on record?
Answer: 3200 mg/kg

Question: Which LD50 does the source give for CN(C)CCCN1c2ccccc2Sc2cccnc21 here?
Answer: 610 mg/kg

Question: For CC1CCCC2N(C)C=C(C(N)=O)C(=O)N12 (stereo not drawn), which LD50 is on record?
Answer: 370 mg/kg

Question: For Cc1nc2cnc3ccccc3c2s1, which LD50 is on record?
Answer: 900 mg/kg and 950 mg/kg

Question: Which LD50 does the source give for O=C(O)c1cn(C2CC2)c2cc(Cl)c(F)cc2c1=O here?
Answer: 583 mg/kg

Question: With CC12CC1(C)C(=O)N(c1cc(Cl)cc(Cl)c1)C2=O (stereo not drawn) as the compound, how does the LD50 read?
Answer: 7000 mg/kg

Question: Which LD50 does the source give for Nc1ccc(Cc2ccc(N)cc2)cc1 here?
Answer: 517 mg/kg

Question: With CCN(CC)CCOC(=O)C1(C2CCCCC2)CCCCC1 as the compound, how does the LD50 read?
Answer: 1290 mg/kg

Question: Which LD50 does the source give for COC(=O)C(C)c1ccc(-c2ccsc2)cc1 (stereo not drawn) here?
Answer: 2330 mg/kg

Question: Which LD50 does the source give for OC(Cn1cncn1)(Cn1cncn1)c1ccc(F)cc1F here?
Answer: 1270 mg/kg

Question: Which LD50 does the source give for O=[N+]([O-])c1ccc(/C=N/NC(=S)N2CCCCC2)o1 here?
Answer: 750 mg/kg

Question: Which LD50 does the source give for CN(N=O)c1ccccn1 here?
Answer: 60 mg/kg

Question: With CCCCCc1cc(O)c2c(c1)OC(C)(C)[C@@H]1CC=C(C)C[C@@H]21 as the compound, how does the LD50 read?
Answer: 860 mg/kg

Question: For O=C(O)Cc1c(-c2ccccc2)c(-c2ccccc2)nn1-c1ccccc1, which LD50 is on record?
Answer: 13 mg/kg

Question: With O=C(Cl)c1ccccc1C(F)(F)F as the compound, how does the LD50 read?
Answer: 8200 mg/kg

Question: For CC(=O)N[C@@H](CC(C)C)C(=O)N[C@@H](CC(C)C)C(=O)N[C@H](C=O)CCCNC(=N)N, which LD50 is on record?
Answer: 720 mg/kg

Question: For CCCCOCCCOC(=O)COc1ccc(Cl)cc1Cl, which LD50 is on record?
Answer: 500 mg/kg

Question: Which LD50 does the source give for Nc1ccc(C(F)(F)F)cc1 here?
Answer: 128 mg/kg

Question: For C#CCCC#CC#CCCCCO, which LD50 is on record?
Answer: 250 mg/kg

Question: Which LD50 does the source give for CN1C(=O)C2C3C=C(C(O)(c4ccccc4)c4ccccn4)C(C3=C(c3ccccc3)c3ccccn3)C2C1=O (stereo not drawn) here?
Answer: 12 mg/kg

Question: With Cc1cc(=O)[nH]c(=S)[nH]1 as the compound, how does the LD50 read?
Answer: 1500 mg/kg

Question: For O=C(CCc1ccccc1)OC1=C(OC(=O)CCc2ccccc2)C(=O)OC1=O, which LD50 is on record?
Answer: 10000 mg/kg

Question: For CC(=O)Oc1ccc(-c2ccc(F)cc2)cc1C(=O)O, which LD50 is on record?
Answer: 185 mg/kg

Question: With CC(C(=O)OCCCS(=O)(=O)O)c1ccc(-c2ccccc2)cc1 (stereo not drawn) as the compound, how does the LD50 read?
Answer: 280 mg/kg

Question: With CC(C=O)Cc1ccc(C(C)C)cc1 (stereo not drawn) as the compound, how does the LD50 read?
Answer: 3810 mg/kg

Question: With NC(=O)Nc1cccc2c3c([nH]c12)CCCC3 as the compound, how does the LD50 read?
Answer: 2770 mg/kg

Question: Which LD50 does the source give for CCCCNCCCCCCN here?
Answer: 536 mg/kg

Question: With O=[N+]([O-])c1cc2nc(C(F)(F)F)[nH]c2cc1Cl as the compound, how does the LD50 read?
Answer: 5.55 mg/kg

Question: Which LD50 does the source give for CCC(C(O)c1ccc2[nH]c(=O)ccc2c1)N1CCN(c2cccc(Cl)c2)CC1 (stereo not drawn) here?
Answer: 500 mg/kg

Question: For OC(Nc1nccs1)C(Cl)(Cl)Cl (stereo not drawn), which LD50 is on record?
Answer: 2500 mg/kg

Question: For O=C1c2ccc3c4c(ccc(c24)C(=O)C1(Cl)Cl)CC3, which LD50 is on record?
Answer: 10600 mg/kg

Question: With O=C(OCc1ccccc1)c1ccccc1O as the compound, how does the LD50 read?
Answer: 2230 mg/kg

Question: With COP(=S)(OC)SCn1nc(C)ccc1=O as the compound, how does the LD50 read?
Answer: 8.75 mg/kg

Question: For CCCCCCCCCCCCCCCCCCP(=O)(OC)OC, which LD50 is on record?
Answer: 15400 mg/kg

Question: For CNc1snc2ccccc12, which LD50 is on record?
Answer: 400 mg/kg

Question: Which LD50 does the source give for CC[C@H]1CCCC(O[C@H]2CC[C@H](N(C)C)[C@@H](C)O2)[C@@H](C)C(=O)C2=C[C@@H]3[C@@H](C=C[C@@H]4C[C@@H](O[C@@H]5O[C@@H](C)[C@H](OC)[C@@H](OC)[C@H]5OC)C[C@@H]34)[C@@H]2CC(=O)O1 (stereo partly drawn) here?
Answer: 3740 mg/kg

Question: Which LD50 does the source give for C/N=N/Nc1ccc(Br)cc1 here?
Answer: 467 mg/kg

Question: For CCCCCCCCCCCCCC[n+]1ccc(C)cc1, which LD50 is on record?
Answer: 250 mg/kg

Question: With O=C1C(=O)c2ncccc2-c2cccnc21 as the compound, how does the LD50 read?
Answer: 5 mg/kg

Question: For CCC[C@@H]1C[C@@H](C(=O)N[C@@H]([C@H]2O[C@H](SC)[C@H](O)[C@@H](O)[C@H]2O)[C@H](C)Cl)N(C)C1, which LD50 is on record?
Answer: 2620 mg/kg and 2190 mg/kg

Question: With CCC(C)CC(CC)Nc1ccc(NC(CC)CC(C)CC)cc1 (stereo not drawn) as the compound, how does the LD50 read?
Answer: 2400 mg/kg

Question: With O=S(=O)(CCCl)COCS(=O)(=O)CCCl as the compound, how does the LD50 read?
Answer: 168 mg/kg

Question: With CN(C)CCCC(CCc1ccc2c(c1)OCO2)CCc1ccc2c(c1)OCO2 as the compound, how does the LD50 read?
Answer: 1230 mg/kg

Question: With CC(C)CCOC=O as the compound, how does the LD50 read?
Answer: 9840 mg/kg

Question: With CCOC(=O)c1c(C)cc2c(CO)n[nH]c(=O)c2c1C as the compound, how does the LD50 read?
Answer: 1750 mg/kg

Question: For C=CCCCCCCCCC(=O)O, which LD50 is on record?
Answer: 2500 mg/kg

Question: For CCC(C(=O)N1CCCC1C)(c1ccccc1)c1ccccc1 (stereo not drawn), which LD50 is on record?
Answer: 326 mg/kg

Question: With CCOC(=O)NS(=O)(=O)c1ccc(Cl)cc1 as the compound, how does the LD50 read?
Answer: 380 mg/kg

Question: Which LD50 does the source give for NS(=O)(=O)CCl here?
Answer: 6050 mg/kg

Question: Which LD50 does the source give for CCc1ccc2nc(C(F)(F)F)[nH]c2c1 here?
Answer: 28 mg/kg

Question: Which LD50 does the source give for COc1cc(C(=O)OC2CCC(N3CCCCC3)CC2)cc(OC)c1OC (stereo not drawn) here?
Answer: 650 mg/kg

Question: For C=CCNc1nc(NCC=C)nc(N(CCCCCCN(c2nc(NCC=C)nc(NCC=C)n2)C2CC(C)(C)NC(C)(C)C2)C2CC(C)(C)NC(C)(C)C2)n1, which LD50 is on record?
Answer: 4010 mg/kg

Question: With NCCN(CCN)CCN as the compound, how does the LD50 read?
Answer: 246 mg/kg

Question: With Oc1ccc(-c2ccccc2)cc1CN1CCCC1 as the compound, how does the LD50 read?
Answer: 30 mg/kg

Question: Which LD50 does the source give for C=C(C)C(=O)OCCSCCCC here?
Answer: 5300 mg/kg

Question: Which LD50 does the source give for COc1cc2nc(N3CCC(N(C)C(=O)c4ccccc4)CC3)nc(N)c2cc1OC here?
Answer: 1000 mg/kg

Question: Which LD50 does the source give for CC1(C)C(C(=O)OCc2coc(Cc3ccccc3)c2)C1(C)C here?
Answer: 141 mg/kg

Question: For Cc1cccc(N)n1, which LD50 is on record?
Answer: 100 mg/kg

Question: With O=C(O)c1ccc(Cl)c([N+](=O)[O-])c1 as the compound, how does the LD50 read?
Answer: 3150 mg/kg

Question: With C=COCCOCCOC=C as the compound, how does the LD50 read?
Answer: 3730 mg/kg

Question: Which LD50 does the source give for CCOP(=O)(Oc1ccc([N+](=O)[O-])cc1)SCC (stereo not drawn) here?
Answer: 17.9 mg/kg

Question: With C=CCC#N as the compound, how does the LD50 read?
Answer: 115 mg/kg

Question: Which LD50 does the source give for CCCCCCc1ccccc1O here?
Answer: 1300 mg/kg

Question: With C=C(Cl)c1ccc([N+](=O)[O-])cc1 as the compound, how does the LD50 read?
Answer: 710 mg/kg

Question: Which LD50 does the source give for Sc1c(Cl)c(Cl)c(Cl)c(Cl)c1Cl here?
Answer: 11900 mg/kg

Question: Which LD50 does the source give for CCOP(=O)(OCC)SCSCC here?
Answer: 0.25 mg/kg

Question: For CCCCCCCCCCCCCCCCCCN(C(=O)CC(C(=O)O)S(=O)(=O)O)C(CC(=O)O)C(=O)O (stereo not drawn), which LD50 is on record?
Answer: 6500 mg/kg

Question: For Cc1oc(=O)oc1COC(=O)[C@@H]1N2C(=O)[C@@H](NC(=O)[C@H](N)c3ccccc3)[C@H]2SC1(C)C, which LD50 is on record?
Answer: 10000 mg/kg

Question: For CCOC(=O)C=C(C)C, which LD50 is on record?
Answer: 11600 mg/kg

Question: With CCN(C)N=O as the compound, how does the LD50 read?
Answer: 90 mg/kg

Question: For ClCCC(Cl)(Cl)Cl, which LD50 is on record?
Answer: 490 mg/kg

Question: With CCCCC(CC)COS(=O)(=O)O (stereo not drawn) as the compound, how does the LD50 read?
Answer: 4120 mg/kg

Question: Which LD50 does the source give for CN(C)CCCN1c2ccccc2C(C)(C)c2ccccc21 here?
Answer: 1670 mg/kg and 1850 mg/kg

Question: For Cc1cc(Cl)ccc1OCC(=O)O, which LD50 is on record?
Answer: 1200 mg/kg and 800 mg/kg

Question: Which LD50 does the source give for CCn1cc(C(=O)O)c(=O)c2cc(F)c(N3CCN(C)CC3)cc21 here?
Answer: 2500 mg/kg

Question: With CC(CCc1ccccc1)NCC(O)c1ccc(O)c(C(N)=O)c1 (stereo not drawn) as the compound, how does the LD50 read?
Answer: 2110 mg/kg

Question: With FC(F)(F)C(F)(Br)Br as the compound, how does the LD50 read?
Answer: 54600 mg/kg

Question: With NN=C(N)N as the compound, how does the LD50 read?
Answer: 500 mg/kg

Question: For C=CC(=O)OCC(CC)CC, which LD50 is on record?
Answer: 6490 mg/kg

Question: Which LD50 does the source give for C[Si](C)(C)OP(=O)(O[Si](C)(C)C)O[Si](C)(C)C here?
Answer: 3440 mg/kg

Question: For Nc1cc(Cl)c([N+](=O)[O-])cc1Cl, which LD50 is on record?
Answer: 2820 mg/kg

Question: Which LD50 does the source give for O=C(O)Cc1ccccc1Nc1c(Cl)cc(Cl)c2ccccc12 here?
Answer: 56.2 mg/kg

Question: Which LD50 does the source give for CCCCC(=O)Cc1ccccc1 here?
Answer: 4400 mg/kg

Question: Which LD50 does the source give for CCCCCCCCCCCCCCCCCOCC here?
Answer: 1260 mg/kg

Question: With C=CC(=O)OCCN(CC)CC as the compound, how does the LD50 read?
Answer: 770 mg/kg

Question: Which LD50 does the source give for CC(Cc1ccccc1)OC(N)=O (stereo not drawn) here?
Answer: 1100 mg/kg

Question: With Nc1ccc(OC(F)(F)C(F)F)c(N)c1 as the compound, how does the LD50 read?
Answer: 1070 mg/kg

Question: With COC(=O)N/N=C/c1c[n+]([O-])c2ccccc2[n+]1[O-] as the compound, how does the LD50 read?
Answer: 850 mg/kg

Question: With N=C(S)NN=Nc1ccc(Cl)c(Cl)c1 as the compound, how does the LD50 read?
Answer: 1 mg/kg

Question: Which LD50 does the source give for CCCCN=C(NCCCC)C(OCC)c1ccc(Cl)cc1 (stereo not drawn) here?
Answer: 220 mg/kg

Question: For CCCCN(C=O)CCCC, which LD50 is on record?
Answer: 620 mg/kg

Question: Which LD50 does the source give for CN(C)C(=O)c1sc(-c2cccnc2)nc1-c1ccccc1 here?
Answer: 1040 mg/kg

Question: For CC(CC1c2ccccc2CCc2ccccc21)CN(C)C (stereo not drawn), which LD50 is on record?
Answer: 700 mg/kg

Question: With CC(=O)Oc1c(C)ncc2c1COC(C(C)C)OC2 (stereo not drawn) as the compound, how does the LD50 read?
Answer: 2850 mg/kg

Question: For CC(CCl)[N+](=O)[O-] (stereo not drawn), which LD50 is on record?
Answer: 197 mg/kg

Question: Which LD50 does the source give for CCOC(C)C#N (stereo not drawn) here?
Answer: 2860 mg/kg

Question: With CCCCCCCCCCCCCCCC[N+](C)(C)CC as the compound, how does the LD50 read?
Answer: 500 mg/kg

Question: With CC(=O)OC(C)=O as the compound, how does the LD50 read?
Answer: 1780 mg/kg

Question: Which LD50 does the source give for CCOC(C1=NCC(CC)(CC)CN1)c1cccc(Cl)c1 (stereo not drawn) here?
Answer: 110 mg/kg
